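Following 48 hours of exposure in 96-well plates, responses at five concentrations were used to interpolate endpoints linearly. GI50 marks 50% less growth.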 Activity calls are given as the source filed them. No stated cut-off is given here; in the data, active = GI50 up to about 1.1 µM and inactive = higher.
Tests used:
Experiment in all cases: DTP human tumour cell line panel, 48 h
SK-OV-3 = test system: SK-OV-3
NCI-H226 = test system: NCI-H226
NCI-H522 = test system: NCI-H522
SF-295 = test system: SF-295
MDA-N = test system: MDA-N
BT-549 = test system: BT-549
CCRF-CEM = test system: CCRF-CEM
A498 = test system: A498
SNB-19 = test system: SNB-19
A549 = test system: A549
HCT-15 = test system: HCT-15
NCI/ADR-RES = test system: NCI/ADR-RES
RPMI-8226 = test system: RPMI-8226
OVCAR-8 = test system: OVCAR-8
MDA-MB-231 = test system: MDA-MB-231
UO-31 = test system: UO-31
HOP-62 = test system: HOP-62
SNB-75 = test system: SNB-75
LOX IMVI = test system: LOX IMVI
SK-MEL-2 = test system: SK-MEL-2

SMILES	GI50 (SK-OV-3)	GI50 (NCI-H226)	GI50 (NCI-H522)	GI50 (SF-295)	GI50 (MDA-N)	GI50 (BT-549)	GI50 (CCRF-CEM)	GI50 (A498)	GI50 (SNB-19)	GI50 (A549)	GI50 (HCT-15)	GI50 (NCI/ADR-RES)	GI50 (RPMI-8226)	GI50 (OVCAR-8)	GI50 (MDA-MB-231)	GI50 (UO-31)	GI50 (HOP-62)	GI50 (SNB-75)	GI50 (LOX IMVI)	GI50 (SK-MEL-2)
CC1OC(OC2C[C@](O)(C(=O)CBr)Cc3c(O)c4c(c(O)c32)C(=O)c2ccccc2C4=O)C(F)C(O)C1O (stereo not given in full)	33.6 µM (inactive)	12.7 µM (inactive)	6.18 µM (inactive)	3.54 µM (inactive)	16.3 µM (inactive)	24.7 µM (inactive)	0.776 µM (active)	11.8 µM (inactive)	5.86 µM (inactive)	4.67 µM (inactive)	5.86 µM	15.8 µM (inactive)	1.46 µM (inactive)	16.1 µM (inactive)	9.89 µM (inactive)	1.22 µM (inactive)	3.72 µM (inactive)	8.83 µM (inactive)	10 µM (inactive)	29.6 µM (inactive)
Cc1cccc2c1C(=O)C(C1OC(=O)c3ccccc31)C2 (stereo not given)	> 100 µM (inactive)	> 100 µM (inactive)	> 100 µM (inactive)	> 100 µM (inactive)	> 100 µM (inactive)	> 100 µM (inactive)	> 100 µM (inactive)	> 100 µM (inactive)	> 100 µM (inactive)	> 100 µM (inactive)	> 100 µM	> 100 µM (inactive)	92.5 µM (inactive)	> 100 µM (inactive)	> 100 µM (inactive)	> 100 µM (inactive)	> 100 µM (inactive)	> 100 µM (inactive)	> 100 µM (inactive)	> 100 µM (inactive)
S=c1[nH]nc(Cc2ccccc2)c(=S)[nH]1	> 81.5 µM (inactive)	> 95.3 µM (inactive)	> 51.1 µM (inactive)	> 59.3 µM (inactive)	98.6 µM (inactive)	35.2 µM (inactive)	> 100 µM (inactive)	> 42.9 µM (inactive)	> 87.9 µM (inactive)	> 69.8 µM (inactive)	> 62.1 µM	49.4 µM (inactive)	50.8 µM (inactive)	> 61.2 µM (inactive)	26.1 µM (inactive)	46.5 µM (inactive)	> 75 µM (inactive)	23.1 µM (inactive)	> 52.7 µM (inactive)	> 43.1 µM (inactive)
CCN(CC)CC(O)CNc1ccc(NCC(O)CCl)c2c1C(=O)c1ccccc1C2=O (stereo not given)	18.9 µM (inactive)	9.95 µM (inactive)	4.47 µM (inactive)	9.75 µM (inactive)	5.19 µM (inactive)	2.22 µM (inactive)	1.06 µM (active)	13.5 µM (inactive)	12.2 µM (inactive)	9.27 µM (inactive)	6.1 µM	2.45 µM (inactive)	4.92 µM (inactive)	3.85 µM (inactive)	11.1 µM (inactive)	4.59 µM (inactive)	10.9 µM (inactive)	11 µM (inactive)	0.478 µM (active)	12.2 µM (inactive)
